# Patent US7192939B2, “Pestalotiopsis microsporia isolates and compounds derived therefrom” (Montana State University, priority 2002, dated 2007)
# Legend:
# [1] = tested on: Pythium ultimum; test: Antimycotic activity, minimum inhibitory concentration in potato dextrose broth; assay type: cell-based
# Protocol: (§1) The minimum inhibitory concentration of (1) required to give a 100% reduction of growth of a test fungus over a course of two days was determined by dissolving (1) in 1 ml of potato dextrose broth (PDB). An agar plug, 1 cm in dia, containing the test fungus was then added to the broth and the organisms incubated at 23° C. for 48 hr. At that time the plate containing the fungi was examined visually for growth and the concentration of compound reducing growth by 100% was recorded. Fungi tested were each plant pathogenic and included an oomycete—Pythium ultimum, an ascomycete—Sclerotinia sclerotiorum, and a basidiomycete—Rhizoctonia solani.
# Isopestacin (1) is antimycotic, with total inhibition of Pythium ultimum, a plant pathogenic oomycete, at 40 μg/ml at 48 hr.
# Pestacin was also analyzed for antifungal activity using previously described methodology. […] This level of activity is slightly greater than that previously observed for isopestacin.
# [2] = tested on: Sclerotinia sclerotiorum; test: as above; assay type: cell-based
# Protocol: as §1
# [3] = tested on: Rhizoctonia solani; test: as above; assay type: cell-based
# Protocol: as §1
# [4] = ESR superoxide scavenging (hypoxanthine/xanthine oxidase, EMPO spin trap); assay type: biochemical; conditions: superoxide generated by hypoxanthine/xanthine oxidase, read-out: concentration needed to reduce the free radical O2−• (ESR signal) by 50%
# Protocol: All EPR spectra were recorded on a Bruker model ESP 300E spectrometer, X-band operating at a microwave frequency 9.787 gHz, a microwave power of 10 mW, a modulation frequency of 100.0 kHz, and a modulation amplitude of 0.367 mT. The magnetic field range was 334±80 mT, a time constant of 40.96 ms, a receiver gain of 2×10^4 and a magnetic fieldsweep rate of 0.48 mT/s. […] The superoxide O2 ^−• was generated by the action of hypoxanthine or xanthine on water and oxygen through the catalysis of xanthine oxidase. […] All enzymes and their respective substrates were purchased from Sigma Chemical Co., while other reagents were acquired from Calbiochem, and Life-Tech. The reaction mixture was transferred to an EPR flat tube for signal detection. Also placed in the tube was a spin trap compound-2-ethoxycarbonyl-2-methyl-3,4-dihydro-2H-pyrrole-1-oxide (EMPO) to trap the superoxide. […] Test compounds were added to the tube and their effects on signal reduction (antioxidant activity) were monitored. Because of the water insolubility of (1) it was necessary to dissolve it first into a small amount of methanol and then add it to the reaction mixture. […]
# The superoxide was generated in our experimental set-up by the action of hypoxanthine on water and oxygen via the catalysis of xanthine oxidase. […] Simultaneously, EPR spectra are recorded of the free electrons associated with the free radicals. […]
# [5] = ESR hydroxyl free radical scavenging (Fenton reaction, DEPMPO spin trap); assay type: biochemical; conditions: 0.18 mM OH• chemically generated (Fenton), read-out: concentration required to reduce hydroxyl free radical by 50%
# Protocol: EPR techniques used in this work are primarily those reported by Sheu et al., 2000 and Zhu and Fung, 2000. All EPR spectra were recorded on a Bruker model ESP 300E spectrometer, X-band operating at a microwave frequency 9.787 gHz, a microwave power of 10 mW, a modulation frequency of 100.0 kHz, and a modulation amplitude of 0.367 mT. The magnetic field range was 334±80 mT, a time constant of 40.96 ms, a receiver gain of 2×10^4 and a magnetic fieldsweep rate of 0.48 mT/s. The magnetic field spacings are similar to those reported by Zhang et al (2000). The superoxide O2 ^−• was generated by the action of hypoxanthine or xanthine on water and oxygen through the catalysis of xanthine oxidase. The hydroxyl free radical OH^• is generated by the well-known Fenton reaction: Fe^2++H2O2=Fe^3++OH^−+OH^•, where 0.09 mM ferrous sulfate and 0.18 mM H2O2 were used. All enzymes and their respective substrates were purchased from Sigma Chemical Co., while other reagents were acquired from Calbiochem, and Life-Tech. […] Test compounds were added to the tube and their effects on signal reduction (antioxidant activity) were monitored. […]
# Testing confirms that Isopestacin (1) indeed has antioxidant activity as determined by ESR measurements described in the experimental section. […] Simultaneously, EPR spectra are recorded of the free electrons associated with the free radicals. […]
# [6] = Lipid free radical reduction; assay type: biochemical
# Description: Testing confirms that Isopestacin (1) indeed has antioxidant activity as determined by ESR measurements described in the experimental section. The compound is able to scavenge superoxide O2^−• and OH^• radicals in solution. The superoxide was generated in our experimental set-up by the action of hypoxanthine on water and oxygen via the catalysis of xanthine oxidase. On the other hand OH^• was generated via the Fenton reaction of hydrogen peroxide on ferrous iron. Simultaneously, EPR spectra are recorded of the free electrons associated with the free radicals. […] It should be noted that since superoxide was generated via the xanthine oxidase reaction it was no possible to accurately calculate the exact molar concentration of O2^−• in these reactions. However, (1) is extremely capable of scavenging the hydroxyl free radical (OH^•) with 0.22 mM required to reduce this free radical (0.18 mM OH^•—chemically generated) by 50%. This is an important biological and chemical property of (1) since OH^• is believed to be more detrimental to cell death directly than O2^−•. On the other hand, (1) has no effect in reducing the lipid free radical LOO^−•.
# [7] = Solubility in water; assay type: physicochemical
# [8] = Total oxyradical scavenging capacity (TOSC) assay; assay type: biochemical; conditions: for IC50: TOSC assay, ABAP initiator, KMBA, 37° C., ethylene by GC, read-out: solution concentration required to reduce the effects of the free radical initiator by 50%
# Description: The similarity of pestacin to isopestacin, described herein and in Strobel, G. A.; Ford, E.; Worapong, J.; Harper, J. K.; Arif, A. M.; Grant, D. M.; Fung, P.; Chau, R. M. W. Phytochem. […] Pestacin was thus analyzed using the total oxyradical scavenging capacity (TOSC) assay. This analysis assesses a compounds ability to inhibit a free radical initiator's oxidation of α-Keto-γ-methiolbutyric acid to release ethylene gas. Compounds with antioxidant properties thus decrease the production of ethylene gas, as measured gas chromatographically. Pestacin required a 1.7±0.1 mM solution to reduce the effects of the free radical initiator by 50%. In contrast, the water-soluble vitamin E derivative, troxol, required an 18.8±0.9 mM solution to exert the same effect. Pestacin, therefor, appears to be an extremely effective antioxidant as measured by this assay. A mechanism for antioxidant activity may also be proposed based on the structure of pestacin.
# Antioxidant activity of (1) was assessed by dissolving 8.7 mg of (1) in 200 μL of DMSO then diluting the solution 1:10, 1:100, and 1:1000 in DMSO. A 10 μL volume of each sample was then combined in a 10 mL vial with 100 μL of 100 mM potassium phosphate buffer, 100 μL of 2 mM α-keto-γ-methiolbuthric acid (KMBA), and 690 μL of H2O. Control samples were also prepared containing 100 μL of 100 mM potassium phosphate buffer, 100 μL of 2 mM KMBA, and 700 μL of H2O. The sealed samples were then incubated at 37° C. for 5 minutes followed by injection of 100 μL of the free radical initiator, 2,2′-azobis(2-methylpropionamidine) (ABAP). Peroxy radicals, generated by thermal homolysis of ABAP at 37° C., then oxidized KMBA to produce ethylene gas. Ethylene production was monitored by gas chromatography of 1 mL samples removed every 12 minutes over a 96-minute period. Chromatographic analysis was performed on a Hewlett-Packard 5890A gas chromatograph equipped with a Supelco 6-foot Porpak Q packed column, a flame ionization detector, and employing helium as a carrier gas (30 mL/min). […]
SMILES,"concentration giving total inhibition of Pythium ultimum ([1]; at 48 hr, 100% reduction of growth) [µg/mL]",inhibitory effect on Sclerotinia sclerotiorum [2],inhibitory effect on Rhizoctonia solani [3],IC50 [4] [mM],IC50 [5] [mM],effect in reducing the lipid free radical LOO−• [6],solubility in water [7],"MIC ([1]; Globisporangium ultimum, previously described methodology, read-out: minimum inhibitory concentration against Pythium ultimum) [µg/mL]",IC50 [8] [mM],antioxidant activity relative to troxol ([8]; pestacin vs vitamin E derivative troxol) [times]
"Cc1cc(O)c2c(c1)C(c1c(O)cccc1O)OC2=O (racemic) [Isopestacin, 1-oxo-3-(9,13-dihydroxybenzene)-5-methyl-7-hydroxy-1,3-dihydrobenzofuranone]",40,no inhibitory effect,no inhibitory effect,≥ 0.185,0.22,no effect,very low solubility in water,–,–,–
Cc1cc(O)c2c(c1)COC2c1c(O)cccc1O (racemic) [Pestacin],–,–,–,–,–,–,–,~10,1.7 ± 0.1,11
"Cc1c(C)c2c(c(C)c1O)CCC(C)(C(=O)O)O2 (centres unmarked) [troxol, reference compound]",–,–,–,–,–,–,–,–,18.8 ± 0.9,–
